Experimental data published in patent publication US20260042764A1, “COMPOSITIONS AND METHODS FOR INHIBITION OF KRAS” (TheRas, Inc., priority 2022, published 2026).

What was measured:
[1] = biological target: T1, Avi-KRAS G12D (1-169) GppNHp/RAF1 RBD-3xFLAG (52-151) (Homo sapiens, UniProt P01116, G12D); assay: Raf1-KRAS G12D-GppNHP disruption HTRF assay (Biological Example 1); type: binding; details: KRAS G12D, GppNHp-loaded
T1 construct: Avi-KRAS G12D (1-169)
Description: (§1) A protein:protein interaction (PPI) Homogeneous Time Resolved Fluorescence (HTRF) assay was used to determine the effectiveness of compounds of the present disclosure in disrupting KRAS protein and effector RAF1 binding.
(§2) The assay buffer included: 50 mM Tris pH 7.5, 100 mM NaCl, 5 mM MgCl2, 0.1% BSA, 0.01% Tween, and 10% DMSO. The bead buffer included: 50 mM Tris pH 7.5, and 0.01% Tween 20. Assay volume of 20 μL was used in a 384 well plate-low volume format.
(§3) The HTRF assay employed the following protocol:
(§4) Protein mix was prepared in assay buffer, and dispensed on plates, 10 μL per well, then incubated for 1 h at room temperature, with 700 rpm shaking, Reagents mix was prepared and dispensed on plates, 10 μL per well, then incubated for 1 h at room temperature, with 700 rpm shaking.
(§5) Data was reported as percentage of activity, with DMSO as 100%. Data was plotted and analyzed using Prism 8.

[2] = biological target: T2, Avi-KRAS WT (1-169) GppNHp/RAF1 RBD-3xFLAG (52-151) (Homo sapiens, UniProt P01116); assay: Raf1-KRAS WT-GppNHP disruption HTRF assay (Biological Example 1); type: binding; details: KRAS WT, GppNHp-loaded; Table 11
T2 construct: Avi-KRAS WT (1-169)
T2 sequence (P01116 1-169 isoform P01116-2): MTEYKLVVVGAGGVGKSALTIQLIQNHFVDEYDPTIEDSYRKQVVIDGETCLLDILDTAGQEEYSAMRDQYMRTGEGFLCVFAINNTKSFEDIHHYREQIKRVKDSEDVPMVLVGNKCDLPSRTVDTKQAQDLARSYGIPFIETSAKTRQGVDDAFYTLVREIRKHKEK
Description: as §1, §2, §3, §4, §5

[3] = biological target: T3, Avi-KRAS G12V (1-169) GppNHp/RAF1 RBD-3xFLAG (52-151) (Homo sapiens, UniProt P01116, G12V); assay: Raf1-KRAS G12V-GppNHP disruption HTRF assay (Biological Example 1); type: binding; details: KRAS G12V, GppNHp-loaded; Table 11
T3 construct: Avi-KRAS G12V (1-169)
T3 sequence (P01116 1-169 isoform P01116-2 G12V): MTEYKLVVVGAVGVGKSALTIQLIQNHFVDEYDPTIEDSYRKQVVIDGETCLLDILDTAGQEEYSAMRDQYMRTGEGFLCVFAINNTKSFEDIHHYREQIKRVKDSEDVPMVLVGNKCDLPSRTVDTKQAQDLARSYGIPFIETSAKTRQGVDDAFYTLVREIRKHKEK
Description: as §1, §2, §3, §4, §5

GP2d cells (KRAS G12D) = assay: Cell-based pERK HTRF assay in GP2d cell (Biological Example 2); details: GP2d (KRAS G12D) cells
Description: A pERK assay (Perkin Elmer) was used to determine the effectiveness of compounds in disrupting KRAS G12D protein/effector signaling in cells.
On Day 1, cells (GP2d) were seeded into 96-well plates at 3×10^4 cells/well in 80 μL complete growth media (DMEM, 10% FBS).
(§6) On Day 2, cells were treated with compounds at 0.25% DMSO. The source plate was created with compounds diluted in media at 5-fold the final assay concentration. The compounds were run in a 9-point concentration curve starting at 1 μM or in a 9-point concentration curve starting at 100 nM, with a half-log dilution between concentrations. Twenty μL was transferred onto the cell plates (final volume in wells was 100 μL). Plates were harvested after 60 min incubation by aspirating media and adding kit-supplied 1x supplemented lysis buffer to all wells (50 μL per well). Plates were then placed on a plate shaker and incubated at 850 rpm for an additional 30 min.
Antibody mixture solution was prepared by diluting aliquoted d2 and Eu Cryptate antibodies 1:20 in kit supplied detection buffer, and mixing the diluted antibodies solutions (1:1 v:v).
(§7) Samples were homogenized by pipetting up and down and then transferred (16 μL of cell lysates) from the 96-well cell culture plate to two wells of the HTRF 384-well detection plate containing the antibody solution. Plates were centrifuged (524 g for 1 min) and allowed to incubate between 4 and 24 h at room temperature. Maximum signal is reached after 4 h incubation time and remains stable over a period of 24 hours. Therefore, readings can be made between 4 and 24 h of incubation. Plates were centrifuged again (524 g for Imin), then analyzed on the EnVision plate reader using the following settings: Excitation 320 nm, Bandwidth 75 nm; Emission 615 nm, Bandwidth 85 nm; Gain 100%; Flashes 100; Lag 60 μs.

SW620 cells (KRAS G12V) = assay: Cell-based pERK HTRF assay in SW620 cell (Biological Example 4)
Description: A pERK assay (Perkin Elmer) was used to determine the effectiveness of compounds in disrupting KRAS G12V protein/effector signaling in cells.
On Day 1, cells (SW620) were seeded into 96-well plates at 3×10^4 cells/well in 80 μL complete growth media (RPMI, 10% FBS).
as §6, with “μM,” for “μM or in a 9-point concentration curve starting at 100 nM,”, “4 h” for “60 min”
Antibody mixture solution was prepared by diluting aliquoted d2 and Eu Cryptate antibodies 1:20 in kit supplied detection buffer and mixing the diluted antibodies solutions (1:1 v:v).
as §7, with “Imin)” for “1 min)”, “Maximum signal is reached after 4 h incubation time and remains stable over a period of 24 hours. Therefore, readings can be made between 4 and 24 h of incubation.” left out, “1 min),” for “Imin),”, “En Vision” for “EnVision”

[4] = SW620 (KRAS G12V) cells, pERK HTRF, class symbols

T1 sequence (P01116 1-169 isoform P01116-2 G12D): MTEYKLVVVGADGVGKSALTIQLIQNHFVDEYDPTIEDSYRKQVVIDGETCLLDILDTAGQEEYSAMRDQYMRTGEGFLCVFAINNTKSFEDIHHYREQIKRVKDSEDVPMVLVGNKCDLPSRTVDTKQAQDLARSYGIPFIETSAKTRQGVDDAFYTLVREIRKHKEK

SMILES	IC50 ([1]; Table 11)	IC50 [2]	IC50 [3]	IC50 (GP2d cells (KRAS G12D); GP2d, pERK HTRF)	other results
CN(c1nc(OCC23CCCN2CCC3)nc2c(F)c(-c3ccc(F)c4sc(N)nc34)c(C(F)(F)F)cc12)[C@H]1C[C@H](O)C1 (atropisomer, axis not shown) [Compound 3]	1000 to 10000 nM	1 to 10 µM	1 to 10 µM	–	–
CN(c1nc(OCC23CCCN2CCC3)nc2c(F)c(-c3ccc(F)c4sc(N)nc34)c(C(F)(F)F)cc12)C1CC(O)C1 (stereo not drawn) [Compound 2]	–	–	–	> 1000 nM	–
CO[C@@H]1C[C@@H](COc2nc(N(C)C3CC(O)C3)c3cc(C(F)(F)F)c(-c4ccc(F)c5sc(N)nc45)c(F)c3n2)N(C)C1 (stereo partly drawn) [Compound 17]	–	–	–	> 1000 nM	–
Nc1nc2c(-c3c(C(F)(F)F)cc4c(N[C@H]5CC[C@@H](O)C5)nc(OCC56CCCN5CCC6)nc4c3F)ccc(F)c2s1 (atropisomer, axis not shown) [Compound 60]	1000 to 10000 nM	1 to 10 µM	> 10 µM	–	–
CN(c1nc(OCC2(CN3CCOCC3)CC2)nc2c(F)c(-c3ccc(F)c4sc(N)c(C#N)c34)c(C(F)(F)F)cc12)C1CC(O)C1 (stereo not drawn) [Compound 122]	–	–	–	< 100 nM	–
CO[C@H]1CN2CCC[C@]2(COc2nc(N(C)C3CC(O)C3)c3cc(C(F)(F)F)c(-c4ccc(F)c5sc(N)nc45)c(F)c3n2)C1 (stereo partly drawn) [Compound 14]	–	–	–	> 1000 nM	–
CCN(c1nc(OCC23CCCN2CCC3)nc2c(F)c(-c3ccc(F)c4sc(N)nc34)c(C(F)(F)F)cc12)[C@H]1C[C@@H](O)C1 (atropisomer, axis not shown) [Compound 7]	1000 to 10000 nM	1 to 10 µM	1 to 10 µM	–	–
Nc1nc2c(-c3c(C(F)(F)F)cc4c(N[C@H]5C[C@@H](O)C5)nc(OCC56CCCN5CCC6)nc4c3F)ccc(F)c2s1 (atropisomer, axis not shown) [Compound 9]	1000 to 10000 nM	1 to 10 µM	> 10 µM	–	–
CCN(c1nc(OC[C@@]23CCCN2C[C@H](F)C3)nc2c(F)c(-c3ccc(F)c4sc(N)c(C#N)c34)c(C(F)(F)F)cc12)[C@H]1C[C@H](C)N(C(=O)[C@@H](C)OC)C1 (atropisomer, axis not shown) [Compound 763]	–	–	–	–	IC50 ([1]; class symbols): 100 to 1000 nM; IC50 (SW620 cells (KRAS G12V); [4]): < 100 nM; IC50 (GP2d cells (KRAS G12D); pERK HTRF, class symbols): < 100 nM
CCC(=O)N1C2CCC1CN(c1nc(OC[C@@]34CCCN3C[C@H](F)C4)nc3c(F)c(-c4ccc(F)c5sc(N)nc45)c(C(F)(F)F)cc13)C2 [Compound 97]	> 10000 nM	> 10 µM	> 10 µM	–	–
Nc1nc2c(-c3c(C(F)(F)F)cc4c(N[C@H]5CC[C@H](O)CC5)nc(OCC56CCCN5CCC6)nc4c3F)ccc(F)c2s1 [Compound 63]	1000 to 10000 nM	1 to 10 µM	> 10 µM	–	–
CCN(c1nc(OC[C@@]23CCCN2C[C@H](F)C3)nc2c(F)c(-c3ccc(F)c4sc(N)c(C#N)c34)c(C(F)(F)F)cc12)C1CC(C(=O)N(C)C)C1 (stereo partly drawn) [Compound 950]	–	–	–	–	IC50 (SW620 cells (KRAS G12V); Homo sapiens, SW-620, SW620 (KRAS G12V) cells): < 100 nM; IC50 (GP2d cells (KRAS G12D); GP2d): < 100 nM
Nc1nc2c(-c3c(C(F)(F)F)cc4c(N5CCCC(CO)C5)nc(OCC56CCCN5CCC6)nc4c3F)ccc(F)c2s1 (stereo not drawn) [Compound 54]	1000 to 10000 nM	> 10 µM	> 10 µM	–	–
CN(c1nc(OCC23CCCN2CCC3)nc2c(F)c(-c3ccc(F)c4sc(N)nc34)c(C(F)(F)F)cc12)C1CC(O)C12CCCC2 (single isomer, unassigned) [Compound 11]	> 10000 nM	–	–	–	–
CN1C[C@H](F)C[C@H]1COc1nc(N(C)[C@H]2C[C@@H](O)C2)c2cc(C(F)(F)F)c(-c3ccc(F)c4sc(N)nc34)c(F)c2n1 (atropisomer, axis not shown) [Compound 12]	> 10000 nM	1 to 10 µM	> 10 µM	–	–
CN(c1nc(OC[C@@H]2C[C@@H](F)CN2C)nc2c(F)c(-c3ccc(F)c4sc(N)nc34)c(C(F)(F)F)cc12)C1CC(O)C1 (stereo partly drawn) [Compound 12]	–	–	–	> 1000 nM	–
Nc1nc2c(-c3c(C(F)(F)F)cc4c(N[C@H]5CCC[C@@H](O)C5)nc(OCC56CCCN5CCC6)nc4c3F)ccc(F)c2s1 (atropisomer, axis not shown) [Compound 67]	1000 to 10000 nM	1 to 10 µM	> 10 µM	–	–
CN(c1nc(OCC2(CN3CCOCC3)CC2)nc2c(F)c(-c3ccc(F)c4sc(N)nc34)c(C(F)(F)F)cc12)C1CC(O)C1 (stereo not drawn) [Compound 16]	–	–	–	> 1000 nM	–
Nc1nc2c(-c3c(C(F)(F)F)cc4c(N5CC6CCC(C5)C6O)nc(OCC56CCCN5CCC6)nc4c3F)ccc(F)c2s1 (stereo not drawn) [Compound 52]	1000 to 10000 nM	1 to 10 µM	1 to 10 µM	–	–
CCN(c1nc(OC[C@@]23CCCN2C[C@H](F)C3)nc2c(F)c(-c3ccc(F)c4sc(N)c(C#N)c34)c(C(F)(F)F)cc12)[C@H]1CCN(C(=O)OC2CC(OC)C2)C1 (stereo partly drawn) [Compound 792]	–	–	–	–	IC50 ([1]; class symbols): < 100 nM; IC50 (SW620 cells (KRAS G12V); [4]): < 100 nM; IC50 (GP2d cells (KRAS G12D); pERK HTRF, class symbols): < 100 nM

More lines, main results first:

IC50 ([1]; Table 11)	IC50 [2]	IC50 [3]	IC50 (GP2d cells (KRAS G12D); GP2d, pERK HTRF)	SMILES	other results
–	–	–	< 100 nM	CN(c1nc(OC[C@@]23CCCN2C[C@H](F)C3)nc2c(F)c(-c3ccc(F)c4sc(N)c(C#N)c34)c(C(F)(F)F)cc12)C1CC(F)C1 (stereo partly drawn) [Compound 160]	–
–	–	–	100 to 1000 nM	CN(c1nc(OC[C@@]23CCCN2C[C@H](F)C3)nc2c(F)c(-c3ccc(F)c4sc(N)nc34)c(C(F)(F)F)cc12)C1CC(O)C1 (stereo partly drawn) [Compound 8]	–
1000 to 10000 nM	0.1 to 1 µM	1 to 10 µM	–	CO[C@H]1CN2CCC[C@]2(COc2nc(N(C)[C@H]3C[C@@H](O)C3)c3cc(C(F)(F)F)c(-c4ccc(F)c5sc(N)nc45)c(F)c3n2)C1 (atropisomer, axis not shown) [Compound 14]	–
–	–	–	100 to 1000 nM	CN(c1nc(OC[C@@]23CCCN2C[C@H](F)C3)nc2c(F)c(-c3ccc(F)c4sc(N)c(C#N)c34)c(C(F)(F)F)cc12)C1(CC#N)CC(O)C1 (stereo partly drawn) [Compound 249]	IC50 (SW620 cells (KRAS G12V); SW620 (KRAS G12V) cells, pERK HTRF): 100 to 1000 nM
100 to 1000 nM	–	–	–	CCN(CCCO)c1nc(OC[C@@]23CCCN2C[C@H](F)C3)nc2c(F)c(-c3ccc(F)c4sc(N)c(C#N)c34)c(C(F)(F)F)cc12 [Compound 75]	IC50 (GP2d cells (KRAS G12D); pERK HTRF): < 100 nM
–	–	–	> 1000 nM	CO[C@H]1CN2CCC[C@@]2(COc2nc(N(C)C3CC(O)C3)c3cc(C(F)(F)F)c(-c4ccc(F)c5sc(N)nc45)c(F)c3n2)C1 (stereo partly drawn) [Compound 13]	–
100 to 1000 nM	–	–	–	CN(c1nc(OC[C@@]23CCCN2C[C@H](F)C3)nc2c(F)c(-c3ccc(F)c4sc(N)c(C#N)c34)c(C(F)(F)F)cc12)[C@@H]1CCN(C(=O)CC#N)C1 (atropisomer, axis not shown) [Compound 102]	IC50 (GP2d cells (KRAS G12D); pERK HTRF): < 100 nM
